# From US7595327B2, “Beta-sulfonamide hydroxamic acid inhibitors of tace/matrix metalloproteinase” (priority 2005, dated 2009)
# Counter-ions that a name gives are not always drawn.
# Columns and labels:
# [1] = target: T1, TACE (catalytic domain of the recombinant TACE protein) (Homo sapiens, UniProt P78536); assay: TACE FRET assay using TACE Cat; assay type: biochemical; settings: FRET, pro-TNF-α substrate peptide; read-out: TACE IC50
# T1 construct: The catalytic domain of the recombinant TACE protein was expressed and purified; made in house
# Procedure: The procedure is essentially as described in Jin, G. et al., Analytical Biochemistry (2002) 302, 269-275, incorporated by reference herein in its entirety. […] K is the IC50. Generally, n and B are floated, noting that n (hill slope) should be close to 1 and B (background offset) to 0.
# Pro-TNF-α substrate peptide Abz-[…]-Dpa (AnaSpec, San Jose, Calif., WARC-1) was prepared as a 2 mM stock solution in the TACE assay buffer (50 mM Tris-HCI, pH 7.4, 25 mM NaCl, 4% Glycerol, 0.005% Brij 35). The catalytic domain of the recombinant TACE protein was expressed and purified. The TACE protein (1 ug/ml) was pretreated with the inhibitors at various concentrations for 10 min at room temperature. The reaction was initiated by the addition of the substrate peptide. The increase in fluorescence was monitored at an Excitation of 320 nm and an Emission of 420 nm over a period of 10 min. The initial rate (slope) of the reaction was determined using a fluorescence plate reader (Molecular Devices, Spectra Max Gemini XS).
# recombinant human MMP-2 = target: T2, recombinant human MMP-2 (Homo sapiens, UniProt P08253); assay: In-vitro fluorescence assay of MMP-2 activity; assay type: biochemical
# T2 sequence (P08253 110-660): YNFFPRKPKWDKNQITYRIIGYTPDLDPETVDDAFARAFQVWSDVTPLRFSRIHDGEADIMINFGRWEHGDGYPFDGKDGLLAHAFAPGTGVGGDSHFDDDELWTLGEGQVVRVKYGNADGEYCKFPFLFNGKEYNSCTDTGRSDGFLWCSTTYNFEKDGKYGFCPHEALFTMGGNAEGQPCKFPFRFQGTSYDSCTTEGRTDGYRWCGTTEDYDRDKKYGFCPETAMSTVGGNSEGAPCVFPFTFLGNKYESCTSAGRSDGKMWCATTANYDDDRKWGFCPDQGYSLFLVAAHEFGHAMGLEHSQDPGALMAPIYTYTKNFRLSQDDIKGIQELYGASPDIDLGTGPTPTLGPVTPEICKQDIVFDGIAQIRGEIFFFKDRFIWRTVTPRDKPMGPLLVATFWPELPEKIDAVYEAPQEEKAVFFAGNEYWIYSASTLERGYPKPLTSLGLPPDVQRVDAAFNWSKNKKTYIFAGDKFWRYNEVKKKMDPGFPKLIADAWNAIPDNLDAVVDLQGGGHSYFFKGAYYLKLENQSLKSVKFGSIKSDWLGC
# Procedure: A continuous assay was used in which the substrate is a synthetic peptide containing a fluorescent group (7-methoxycoumarin; Mca) that is quenched by energy transfer to a 2,4-dinitrophenyl group. […] The substrate used was Mca-PQGL-(3-[2,4-dinitrophenyl]-L-2,3-diaminopropionyl)-AR-OH (denoted as Wammp-5, custom synthesized by AnaSpec, Inc.). The assay buffer consisted of 50 mM Hepes (pH 7.4), 100 mM NaCl, 5 mM CaCI2, and 0.005% Brij-35. Each well of black polystyrene 96-well plates contained a 200 μL reaction mixture consisting of assay buffer, purified MMP (final concentration of 25 ng/ml, prepared by diluting with the assay buffer), and varied concentrations of inhibitor (prepared by serially diluting a given inhibitor in DMSO in 96-well polypropylene plate). […] The enzymatic reactions were initiated by adding the substrate to a final concentration of 20 μM, and mixing 10 times with a pipette. The final DMSO concentration in the assay was 6.0%.
# Plots of the inhibitor concentration vs. the percent inhibition were fit to the following equation: y=(a−d)/[1+(x/c)^b]+d, a general sigmoidal curve with Hill slope, a to d. x is the inhibitor concentration under test. y is the percent inhibition. a is the limiting response as x approaches zero. As x increases without bound, y tends toward its limit d. c is the inflection point (IC50) for the curve. That is, y is halfway between the lower and upper asymptotes when x=c. b is the slope factor or Hill coefficient.
# MMP-13 = MMP-13 (Homo sapiens, UniProt P45452); assay: In-vitro fluorescence assay of MMP-13 activity; assay type: biochemical
# Procedure: See Knight, C. […] […].
# The method was essentially the same as for the determination of MMP-1 activity, described above, except that the final concentration of purified MMP in the assay was 0.5 nM, prepared by diluting with the assay buffer.
# [2] = system: TNF-α secretion in Raw 264.7 cells; assay: Cell-based assay for inhibition of TNF-α secretion in Raw cells; settings: Mus musculus, RAW264.7, LPS 100 ng/ml, 4 hr
# Procedure: The basic measurement of the assay is the percentage of inhibition of TNF-α secretion and the IC50 determination by a fitting with the model-39 of LSW data analysis tool. […] Cells are split twice a week by scraping and 1 to 10 or 20 dilutions. For testing compounds, cells are cultured to confluence and are seeded the day before the experiment in 24 well culture dishes at 0.5 to 1 million/ml well. On the next morning, the medium from the overnight culture is replaced with the fresh growth medium. The compounds are added at various concentration at the 0.2% of final DMSO concentrations (10 μl of a 20% DMSO solution containing testing compounds is added to each well). The cells are pre-incubated with compounds for 1 hr. LPS (Sigma, L2262) is added to cells at a final concentration of 100 ng/ml (10 μl of a […] LPS solution freshly diluted from a 1 mg/ml LPS stock solution in PBS is added to each well) and cells are further incubated for 4 hr at 37° C. 1 ml of the supernatant was collected, cells are spun down and the supernatants are frozen at −80° C. until use. The TNF-α and other proinflammatory cytokines were detected by an ELISA assay according to the manufacturer's instructions (Biosource International, Inc., Camarillo, Calif. (For IL-1b measurement in Raw cells, one round of freeze and thaw of the cells was required).
# [3] = system: LPS-induced TNF-α secretion in human whole blood; assay: Human whole blood assay for LPS-induced TNF-α secretion; assay type: cell-based; settings: Homo sapiens, LPS 100 ng/ml, read-out: TNF Secretion HWB IC50
# Procedure: procedure is essentially as described in Newton, R. C., et al., (2001) Ann Rheum […]32, incorporated by reference herein in its entirety. The basic measurement of the assay is the percentage of inhibition of TNF-α secretion and the IC50 determination by a […] model-39 of LSW data analysis tool. 350 μl of fresh human blood drawn from healthy volunteers were pre-incubated with compounds for one hour at the various concentrations at 37° C. with turning generally, the final DMSO concentrations should be kept below 0.2%. At the end of cubation, LPS (Sigma, L2262) was added to the blood at 100 ng/ml and the samples were further incubated for 4 hours or overnight at 37° C. with constant rotation. At the end of the incubation period, 650 μl of serum-free medium was added to the blood samples and the samples were centrifuged at 1500 rpm for 15 minutes. 500 μl of supernate was collected and frozen at -80° C. The TNF-α and other proinflammatory cytokines were detected by ELISA assay according to the manufacturer's instruction (Biosource International, Inc., Camarillo, Calif.).
# T1 sequence (P78536 223-474 limits assumed): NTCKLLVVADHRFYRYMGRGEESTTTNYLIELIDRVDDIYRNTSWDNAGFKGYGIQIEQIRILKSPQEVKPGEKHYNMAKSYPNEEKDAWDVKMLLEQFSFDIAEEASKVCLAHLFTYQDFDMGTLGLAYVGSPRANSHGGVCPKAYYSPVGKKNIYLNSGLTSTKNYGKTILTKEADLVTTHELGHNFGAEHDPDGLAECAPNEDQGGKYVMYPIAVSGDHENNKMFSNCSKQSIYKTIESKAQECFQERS
SMILES,IC50 [1] [nM],IC50 (recombinant human MMP-2) [nM],IC50 (MMP-13) [nM],IC50 [2] [nM],IC50 [3] [nM]
"Cc1cc(COc2ccc(S(=O)(=O)N[C@@H]3CN(C(=O)OC(C)(C)C)C[C@@H]3C(=O)NO)cc2)c2ccccc2n1 (relative stereo) [Example 21, tert-Butyl cis-3-[(hydroxyamino)carbonyl]-4-[({4-[(2-methylquinolin-4-yl)methoxy]phenyl}sulfonyl)amino]pyrrolidine-1-carboxylate]",< 0.6,8800,4890,38,1300
"Cc1cc(COc2ccc(S(=O)(=O)NC3CCN(CCO)CC3C(=O)NO)cc2)c2ccccc2n1 (mixture of isomers) [Example 32, 1-(2-Hydroxy-ethyl)-4-[4-(2-methyl-quinolin-4-ylmethoxy)-benzenesulfonylamino]-piperidine-3-carboxylic acid hydroxyamide]",3.2,> 10000,> 10000,180,1900
"Cc1cc(COc2ccc(S(=O)(=O)N(C)[C@H]3COC[C@H]3C(=O)NO)cc2)c2ccccc2n1 (stereo in doubt) [Example 27, (3S,4R)-4-{Methyl-[4-(2-methyl-quinolin-4-ylmethoxy)-benzenesulfonyl]-amino}-tetrahydro-furan-3-carboxylic acid hydroxyamide]",1.4,> 16700,> 16700,929,41000
"Cc1cc(COc2ccc(S(=O)(=O)N[C@@H]3CCN(C=O)C[C@]3(O)C(=O)NO)cc2)c2ccccc2n1 [Example 46, 4-({4-[({(3R,4R)-1-Formyl-3-hydroxy-3-[(hydroxyamino)carbonyl]piperidin-4-yl}amino)sulfonyl]phenoxy}methyl)-2-methylquinolinium trifluoroacetic acid salt]",1.4,> 16700,> 16700,160,2900
"Cc1cc(COc2ccc(S(=O)(=O)N(C)[C@@H]3[C@@H]4CC[C@@H](C4)[C@@H]3C(=O)NO)cc2)c2ccccc2n1 (relative stereo) [Example 5, endo-N-Hydroxy-3-[methyl({4-[(2-methylquinolin-4-yl)methoxy]phenyl}sulfonyl)amino]bicyclo[2.2.1]heptane-2-carboxamide]",1.1,> 16700,> 16700,52,9600
"Cc1cc(COc2ccc(S(=O)(=O)N[C@@H]3CN(C(=O)OC(C)(C)C)CCC3C(=O)NO)cc2)c2ccccc2n1 (stereo in doubt) [Example 33, (3S,4R)-4-Hydroxycarbamoyl-3-[4-(2-methyl-quinolin-4-ylmethoxy)-benzenesulfonylamino]-piperidine-1-carboxylic acid tert-butyl ester]",0.7,> 16700,> 16700,58,4700
"C#CCN1C[C@H](C(=O)NO)[C@H](NS(=O)(=O)c2ccc(OCc3cc(C)nc4ccccc34)cc2)C1 (relative stereo) [Example 18, cis-N-Hydroxy-4-[({4-[(2-methylquinolin-4-yl)methoxy]phenyl}sulfonyl)amino]-1-prop-2-yn-1-ylpyrrolidine-3-carboxamide]",0.7,> 10000,> 10000,90,1000
"Cc1cc(COc2ccc(S(=O)(=O)N[C@@H]3CCN(C=O)C[C@]3(C)C(=O)NO)cc2)c2ccccc2n1 [Example 51, (3S,4R)-1-formyl-N-hydroxy-3-methyl-4-[({4-[(2-methylquinolin-4-yl)methoxy]phenyl}sulfonyl)amino]piperidine-3-carboxamide]",< 0.6,> 16700,> 10000,> 1000,30000
"Cc1cc(COc2ccc(S(=O)(=O)N[C@@H]3CCC[C@]3(F)C(=O)NO)cc2)c2ccccc2n1 [Example 54, (1R,2R)-1-fluoro-N-hydroxy-2-[((4-[(2-methylquinolin-4-yl)methoxy]phenyl}sulfonyl)amino]cyclopentanecarboxamide]",< 0.6,> 16700,> 10000,19,2300
"Cc1cc(COc2ccc(S(=O)(=O)N[C@@H]3CCOC[C@@]3(C)C(=O)NO)cc2)c2ccccc2n1 [Example 45, (3S,4R)-N-hydroxy-3-methyl-4-[({4-[(2-methylquinolin-4-yl)methoxy]phenyl}sulfonyl)amino]tetrahydro-2H-pyran-3-carboxamide]",6.2,> 16700,> 16700,1920,> 50000
"Cc1cc(COc2ccc(S(=O)(=O)N[C@@H]3CCC[C@@H]3C(=O)NO)cc2)c2ccccc2n1 (relative stereo) [Example 11, cis-N-Hydroxy-2-[({4-[(2-methylquinolin-4-yl)methoxy]phenyl}sulfonyl)amino]cyclopentanecarboxamide]",0.6,> 16700,> 16700,11,740
"Cc1cc(COc2ccc(S(=O)(=O)N[C@@H]3CCOC[C@]3(C)C(=O)NO)cc2)c2ccccc2n1 [Example 44, (3R,4R)-N-hydroxy-3-methyl-4-[({4-[(2-methylquinolin-4-yl)methoxy]phenyl}sulfonyl)amino]tetrahydro-2H-pyran-3-carboxamide]",0.5,> 16700,> 16700,1670,46000
"Cc1cc(COc2ccc(S(=O)(=O)N(C)[C@@H]3CCOCC3C(=O)NO)cc2)c2ccccc2n1 (stereo in doubt) [Example 25, (3S,4R)-4-{Methyl-[4-(2-methyl-quinolin-4-ylmethoxy)-benzenesulfonyl]-amino}-tetrahydro-pyran-3-carboxylic acid hydroxyamide]",7.9,> 16700,> 16700,> 1000,> 50000
"Cc1cc(COc2ccc(S(=O)(=O)N[C@@H]3CCCC[C@H]3C(=O)NO)cc2)c2ccccc2n1 (relative stereo) [Example 14, trans-N-Hydroxy-2-[({4-[(2-methylquinolin-4-yl)methoxy]phenyl}sulfonyl)amino]cyclohexanecarboxamide]",1.8,> 16700,> 16700,60,4500
